Laboratory results reported in patent publication US8299267B2, “(3-hydroxy-4-amino-butan-2-yl) -3- (2-thiazol-2-yl-pyrrolidine-1-carbonyl) benzamide derivatives and related compounds as beta-secretase inhibitors for treating” (CoMentis, Inc., priority 2007, dated 2012).
Read-outs that look alike come from different tables or passages of the source.

Key:
[1] = system: Aβ production in Chinese hamster ovary cells that over-express human APP695 with the London and Swedish mutations; experiment: Cellular Aβ IC50 determination (Aβ40 sandwich ELISA); type: cell-based; conditions: Cricetulus griseus
How it was run: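 APP695 (London/Swedish)-overexpressing CHO cells were treated 48 h after seeding with serial dilutions from near 4 μM top concentration (0.4% DMSO) for 24 h at 37 °C. Secreted Aβ40 was quantified by sandwich ELISA relative to controls and fit to a 4-parameter IC50 model.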

[2] = target: T1, memapsin 1 (Homo sapiens, UniProt Q9Y5Z0); experiment: Inhibition of memapsin 1 beta-secretase activity (substrate peptide ELDLAVEFWHDR, MALDI-TOF); type: biochemical
T1 sequence (Q9Y5Z0 63-518): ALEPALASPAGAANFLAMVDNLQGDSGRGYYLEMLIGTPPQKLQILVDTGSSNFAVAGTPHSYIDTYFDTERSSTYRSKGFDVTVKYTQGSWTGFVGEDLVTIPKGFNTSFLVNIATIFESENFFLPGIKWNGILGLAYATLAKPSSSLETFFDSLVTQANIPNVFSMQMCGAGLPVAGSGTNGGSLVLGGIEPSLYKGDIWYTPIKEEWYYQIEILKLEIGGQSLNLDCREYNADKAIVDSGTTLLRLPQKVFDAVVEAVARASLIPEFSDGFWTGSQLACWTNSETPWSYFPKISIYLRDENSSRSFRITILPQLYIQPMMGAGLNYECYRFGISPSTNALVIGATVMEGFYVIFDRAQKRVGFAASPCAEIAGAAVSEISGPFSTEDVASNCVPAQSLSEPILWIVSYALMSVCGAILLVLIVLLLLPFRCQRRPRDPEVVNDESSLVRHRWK
Experimental: [The procedure below names another target; the source lists this target under the same test.] (§1) A substrate peptide NH3-ELDLAVEFWHDR-CO2 (SEQ ID NO.: 1) was dissolved at 2 mg/mL in 10% glacial acetic acid and diluted into 0.009M NaOH to obtain μM concentration at pH 4.1. After equilibration at 37 degrees C., the reactions were initiated by the addition of an aliquot of memapsin 2. Aliquots were removed at time intervals, and combined with an equal volume of MALDI-TOF matrix (α-hydroxycinnamic acid in acetone, 20 mg/mL) and immediately spotted in duplicate onto a stainless-steel MALDI sample plate. MALDI-TOF mass spectrometry was performed on a PE Biosystems Voyager DE. The instrument was operated at 25,000 accelerating volts in positive mode with a 150 ns delay. Ions with a mass-to-charge ratio (m/z) were detected in the range of 650-2000 atomic mass units. Data were analyzed by the Voyager Data Explorer module to obtain ion intensity data for mass species of substrates and corresponding products in a given mixture. Relative product formation was calculated as the ratio of signal intensity of the product to the sum of signal intensities of both product and the corresponding substrate. Relative product formed per unit time was obtained from non-linear regression analysis of the data representing the initial 15% formation of product using the model: 1−e^−kT, where k was the relative hydrolytic rate constant and T was time in seconds. Initial rates were expressed relative to uninhibited controls and fit to a tight-binding model of competitive inhibition as above.

[3] = target: memapsin 2 (Homo sapiens, UniProt P56817); experiment: Inhibition of memapsin 2 beta-secretase activity toward fluorogenic substrate FS-2; type: biochemical
Sequence of memapsin 2 (P56817 46-501): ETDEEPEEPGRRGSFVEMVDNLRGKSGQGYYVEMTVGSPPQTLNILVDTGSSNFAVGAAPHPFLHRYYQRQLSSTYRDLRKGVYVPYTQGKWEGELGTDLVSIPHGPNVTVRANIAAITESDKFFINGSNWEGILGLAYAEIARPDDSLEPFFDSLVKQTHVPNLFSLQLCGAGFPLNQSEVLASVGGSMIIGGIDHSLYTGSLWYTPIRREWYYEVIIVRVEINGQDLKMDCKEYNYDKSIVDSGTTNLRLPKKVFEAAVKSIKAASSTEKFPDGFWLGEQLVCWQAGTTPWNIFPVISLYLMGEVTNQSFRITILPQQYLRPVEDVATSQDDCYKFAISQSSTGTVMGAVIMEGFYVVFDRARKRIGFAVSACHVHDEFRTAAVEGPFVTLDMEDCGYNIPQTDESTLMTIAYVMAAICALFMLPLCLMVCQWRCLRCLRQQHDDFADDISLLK
How it was run: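 Memapsin 2 was preincubated with compound 20 min at pH 4, 37 °C, then reacted with fluorogenic substrate FS-2 (MCA-SEVNLDAEFK-DNP), an APP-derived Swedish-variant peptide. Inhibition was followed kinetically by fluorescence.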

[4] = target: cathepsin D (Homo sapiens, UniProt P07339); experiment: Inhibition of cathepsin D activity (substrate peptide ELDLAVEFWHDR, MALDI-TOF); type: biochemical
Sequence of cathepsin D (P07339 65-412, species assumed): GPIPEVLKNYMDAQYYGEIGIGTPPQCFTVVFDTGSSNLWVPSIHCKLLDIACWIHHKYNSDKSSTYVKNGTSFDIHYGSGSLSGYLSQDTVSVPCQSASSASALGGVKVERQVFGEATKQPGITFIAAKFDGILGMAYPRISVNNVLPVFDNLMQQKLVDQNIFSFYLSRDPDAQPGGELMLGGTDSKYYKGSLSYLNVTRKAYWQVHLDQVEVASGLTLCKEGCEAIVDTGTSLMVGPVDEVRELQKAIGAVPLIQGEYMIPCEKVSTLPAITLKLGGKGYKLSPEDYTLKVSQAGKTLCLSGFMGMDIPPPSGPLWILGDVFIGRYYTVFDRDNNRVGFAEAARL
Experimental: [The procedure below names another target; the source lists this target under the same test.] as §1

[5] = Aβ40 in CHO cells over-expressing human APP695, 24 h incubation
[6] = memapsin 1, pH 4.1, 37 degrees C., read-out: M1Ki
[7] = memapsin 2, pH 4, 37° C., 20 minutes pre-incubation, substrate FS-2, read-out: M2Ki
[8] = cathepsin D, pH 4.1, 37 degrees C., read-out: CDKi

| Compound | IC50 ([1]; cellular Aβ) [nM] | Ki ([2]; read-out: M1 Ki) [nM] | Ki ([3]; read-out: M2 Ki) [nM] | Ki ([4]; read-out: CathD Ki) [nM] | IC50 [1, 5] [nM] | Ki [2, 6] [nM] | Ki [3, 7] [nM] | Ki [4, 8] [nM] |
| --- | --- | --- | --- | --- | --- | --- | --- | --- |
| Cc1csc([C@H]2CCCN2C(=O)c2cccc(C(=O)N[C@@H](Cc3ccccc3)[C@H](O)CNCc3cccc(C(F)(F)F)c3)c2)n1 [N-((2S,3R)-3-hydroxy-1-phenyl-4-(3-(trifluoromethyl)benzylamino)butan-2-yl)-3-((R)-2-(4-methylthiazol-2-yl)pyrrolidine-1-carbonyl)benzamide] | 23 | 826 | 7.09 | 1080 |  |  |  |  |
| Cc1csc([C@H]2CCCN2C(=O)c2cccc(C(=O)N[C@@H](Cc3ccccc3)[C@H](O)CNCc3cncc(C(C)C)c3)c2)n1 [Compound 2, N-((2S,3R)-3-hydroxy-4-((5-isopropylpyridin-3-yl)methylamino)-1-phenylbutan-2-yl)-3-((R)-2-(4-methylthiazol-2-yl)pyrrolidine-1-carbonyl)benzamide] |  |  |  |  | < 300 | < 300 | < 100 | 301 to 500 |
| Cc1csc([C@H]2CCCN2C(=O)c2cccc(C(=O)N[C@@H](Cc3ccccc3)[C@H](O)CNCc3cccc(C(C)(C)C)c3)c2)n1 [Compound 10, N-((2S,3R)-4-(3-tert-butylbenzylamino)-3-hydroxy-1-phenylbutan-2-yl)-3-((R)-2-(4-methylthiazol-2-yl)pyrrolidine-1-carbonyl)benzamide] |  |  |  |  | < 300 | 301 to 500 | < 100 | > 501 |
| COc1cccc(CNC[C@@H](O)[C@H](Cc2ccccc2)NC(=O)c2cc(C)cc(C(=O)N3CCC[C@@H]3c3nc(C)cs3)c2)c1 [Compound 6, N-((2S,3R)-3-hydroxy-4-(3-methoxybenzylamino)-1-phenylbutan-2-yl)-3-methyl-5-((R)-2-(4-methylthiazol-2-yl)pyrrolidine-1-carbonyl)benzamide] |  |  |  |  | < 300 | > 501 | < 100 | 301 to 500 |
| Cc1cc(C(=O)N[C@@H](Cc2ccccc2)[C@H](O)CNCc2cccc(C(C)(C)C)c2)cc(C(=O)N2CCC[C@@H]2c2nc(C)cs2)c1 [Compound 14, N-((2S,3R)-4-(3-tert-butylbenzylamino)-3-hydroxy-1-phenylbutan-2-yl)-3-methyl-5-((R)-2-(4-methylthiazol-2-yl)pyrrolidine-1-carbonyl)benzamide] |  |  |  |  | < 300 | < 300 | < 100 | < 300 |
| Cc1csc([C@H]2CCCN2C(=O)c2cccc(C(=O)N[C@@H](Cc3ccccc3)[C@H](O)CNCc3cccc(C(F)(F)F)c3)c2)n1 [Compound 9, N-((2S,3R)-3-hydroxy-1-phenyl-4-(3-(trifluoromethyl)benzylamino)butan-2-yl)-3-((R)-2-(4-methylthiazol-2-yl)pyrrolidine-1-carbonyl)benzamide] |  |  |  |  | < 300 | 301 to 500 | < 100 | > 501 |
| COc1cccc(CNC[C@@H](O)[C@H](Cc2ccccc2)NC(=O)c2cccc(C(=O)N3COC[C@@H]3c3nc(C)cs3)c2)c1 [Compound 15, N-((2S,3R)-3-hydroxy-4-(3-methoxybenzylamino)-1-phenylbutan-2-yl)-3-((R)-4-(4-methylthiazol-2-yl)oxazolidine-3-carbonyl)benzamide] |  |  |  |  | < 300 | 301 to 500 | < 100 | < 300 |
| Cc1cc(C(=O)N[C@@H](Cc2ccccc2)[C@H](O)CNCc2cccc(C(F)(F)F)c2)cc(C(=O)N2CCC[C@@H]2c2nc(C)cs2)c1 [Compound 12, N-((2S,3R)-3-hydroxy-1-phenyl-4-(3-(trifluoromethyl)benzylamino)butan-2-yl)-3-methyl-5-((R)-2-(4-methylthiazol-2-yl)pyrrolidine-1-carbonyl)benzamide] |  |  |  |  | < 300 | < 300 | < 100 | > 501 |
| Cc1csc([C@H]2CCCN2C(=O)c2cc(C(=O)N[C@@H](Cc3ccccc3)[C@H](O)CNCc3cncc(C(C)(C)F)c3)cc(-c3ncco3)c2)n1 [Compound 38, N-((2S,3R)-4-((5-(2-fluoropropan-2-yl)pyridin-3-yl)methylamino)-3-hydroxy-1-phenylbutan-2-yl)-3-((R)-2-(4-methylthiazol-2-yl)pyrrolidine-1-carbonyl)-5-(oxazol-2-yl)benzamide] |  |  |  |  | < 300 |  | < 100 |  |
| Cc1coc([C@H]2CCCN2C(=O)c2cccc(C(=O)N[C@@H](Cc3ccccc3)[C@H](O)CNCc3cncc(C(C)(F)F)c3)c2)n1 [Compound 102, N-((2S,3R)-4-((5-(1,1-difluoroethyl)pyridin-3-yl)methylamino)-3-hydroxy-1-phenylbutan-2-yl)-3-((R)-2-(4-methyloxazol-2-yl)pyrrolidine-1-carbonyl)benzamide] |  |  |  |  | < 300 |  | < 100 |  |
| Cc1csc([C@H]2CCCN2C(=O)c2cc(C(=O)N[C@@H](Cc3ccccc3)[C@H](O)CNCc3cccc(C(C)(C)C)c3)cc(N(C)C)c2)n1 [Compound 41, N-((2S,3R)-4-(3-tert-butylbenzylamino)-3-hydroxy-1-phenylbutan-2-yl)-3-(dimethylamino)-5-((R)-2-(4-methylthiazol-2-yl)pyrrolidine-1-carbonyl)benzamide] |  |  |  |  | < 300 |  | < 100 |  |
| COc1cc(C(=O)N[C@@H](Cc2ccccc2)[C@H](O)CNCc2cccc(Cl)c2)cc(C(=O)N2CCC[C@@H]2c2nc(C)cs2)c1 [Compound 18, N-((2S,3R)-4-(3-chlorobenzylamino)-3-hydroxy-1-phenylbutan-2-yl)-3-methoxy-5-((R)-2-(4-methylthiazol-2-yl)pyrrolidine-1-carbonyl)benzamide] |  |  |  |  | < 300 |  | < 100 |  |
| Cc1csc([C@H]2CCCN2C(=O)c2cccc(C(=O)N[C@@H](Cc3ccccc3)[C@H](O)CNCc3cccc(N(C)C)c3)c2)n1 [Compound 69, N-((2S,3R)-4-(3-(dimethylamino)benzylamino)-3-hydroxy-1-phenylbutan-2-yl)-3-((R)-2-(4-methylthiazol-2-yl)pyrrolidine-1-carbonyl)benzamide] |  |  |  |  | < 300 |  | < 100 |  |
| Cc1csc([C@H]2CCCN2C(=O)c2cc(C(=O)N[C@@H](Cc3ccccc3)[C@H](O)CNCc3cncc(C(C)C)c3)cc(-c3cnco3)c2)n1 [Compound 33, N-((2S,3R)-3-hydroxy-4-((5-isopropylpyridin-3-yl)methylamino)-1-phenylbutan-2-yl)-3-((R)-2-(4-methylthiazol-2-yl)pyrrolidine-1-carbonyl)-5-(oxazol-5-yl)benzamide] |  |  |  |  | < 300 |  | < 100 |  |
| Cc1csc([C@H]2CCCN2C(=O)c2cc(CF)cc(C(=O)N[C@@H](Cc3ccccc3)[C@H](O)CNCc3cncc(C(F)(F)F)c3)c2)n1 [Compound 51, 3-(fluoromethyl)-N-((2S,3R)-3-hydroxy-1-phenyl-4-((5-(trifluoromethyl)pyridin-3-yl)methylamino)butan-2-yl)-5-((R)-2-(4-methylthiazol-2-yl)pyrrolidine-1-carbonyl)benzamide] |  |  |  |  | < 300 |  | < 100 |  |
| Cc1csc([C@H]2CCCN2C(=O)c2cc(C(=O)N[C@@H](Cc3ccccc3)[C@H](O)CNCc3cncc(C(C)C)c3)cc(-c3ncco3)c2)n1 [Compound 25, N-((2S,3R)-3-hydroxy-4-((5-isopropylpyridin-3-yl)methylamino)-1-phenylbutan-2-yl)-3-((R)-2-(4-methylthiazol-2-yl)pyrrolidine-1-carbonyl)-5-(oxazol-2-yl)benzamide] |  |  |  |  | < 300 |  | < 100 |  |
